Measured values as given in patent US20230181027A1, “METHODS AND MATERIALS FOR TREATING NEUROMYELITIS OPTICA SPECTRUM DISEASES” (Mayo Foundation for Medical Education and Research, priority 2019, published 2023).

What was measured:
microglia [1] = experiment: In situ microglial process chemoattraction assay (C3a-containing pipettes); assay type: cell-based, mice
Procedure: The cleavage of the complement component C3 produces two signaling molecules, C3a and C3b.
Hippocampal tissue slices ([…] thick) were prepared from P14-21 mice and incubated in imaging media. Microglia were visualized by GFP. For each image in the time-series, 15 z-steps spaced […] apart were collected per image ([…] total depth). Images were taken at 5 minute intervals for up to 1 hour on Scientifica 2-photon microscope with an X20 lens. Image processing and analysis was performed using NIH Image J software.

murine model of NMO = experiment: Rotarod test (latency to fall) in murine model of NMO with intrathecal NMO-IgG infusion; assay type: in vivo, mice
From the text: To investigate the cellular and molecular mechanisms underlying NMO pathology, a murine model was developed that utilizes IgG purified from NMO patient serum (NMO-IgG) or monoclonal AQP4-specific IgG. IgG collected from healthy individuals, or from healthy control subjects (control-IgG), or a control monoclonal IgG of irrelevant specificity was used in each experiment. NMO-IgG and control-IgG was purified by protein G adsorption (FIG. 1). An osmotic mini-pump delivery system loaded with either NMO-IgG, AQP4-IgG or control-IgG was placed subcutaneously and IgG was infused continuously into the spinal subarachnoid space via intrathecal catheter for 5 to 7 days (FIG. 2A). […] Gait analysis was also performed using ink tracking as described elsewhere (see, e.g., Zhang et al., J. Autoimmun. 53:67-77 (2014)). […] After 5 days of either […], 3 µg/µL, or 1 µg/µL NMO-IgG treatment, stride lengths decreased from an average of 5.7 cm to 2.6, 3.8, and 5.0 cm respectively (FIGS. 2C and 2D).
A 3.5 cm polyurethane-silicone catheter (Alzet, CA) was inserted at the condylar canal to accesses the subarachnoid space at the cisterna magna and extended to lumbar level of spinal cord. Five days later an osmotic mini-pump delivery system, containing either NMO-IgG or control-IgG, was placed subcutaneously over the right shoulder. IgG was delivered continuously for 5-7 days (1-10 µg/day) (FIG. 2A).
The rotarod tests were performed using a five-lane Rotarod apparatus (Med Assocaites Inc). The rotarod speed started from 4 rounds per minute and uniformly accelerated to 40 rounds per minute over 5 minutes. Each mouse was tested for 3 times with 15 minute intervals. For gait analysis, mouse fore and hind limbs were covered by different color ink and allowed to walk freely across a narrow strip of paper. Stride length of hind limbs was reported as the mean of 5 sequential steps.
Minocycline hydrochloride was dissolved in PBS with 1% DMSO at 30 µg/µL and mixed with 20 µg/µL NMO-IgG to make a mixture of 15 µg/µL minocycline and 10 µg/µL NMO-IgG. […]

microglia [2] = experiment: Iba1 immunostaining of spinal cord microglia (activation or depletion); assay type: in vivo, mice
From the text: To examine microglial activation in our murine model of NMO, genetic labeling of microglia (CX3CR1^GFP/+) and immunostaining for the microglial marker Iba1 were used. […] In addition, NMO-IgG induced striking morphological transition of microglia, from “resting” ramified to “activated” bushy phenotype in time-dependent manner (FIG. 4C).
Microglial activation after NMO-IgG infusion indicates a potential role for microglia in NMO pathogenesis. To test this idea, microglia ablation approaches were utilized to directly examine the requirement of microglia in NMO-induced motor deficits. […].
TM (Sigma) was administered as a solution in corn oil (Sigma) to mice over 4 weeks of age via i.p. injection. Animals received four doses of TM (150 mg kg^-1, 20 mg mL^-1 in corn oil) in 48 hour intervals. […] Mice administered with DT only (without TM) were used as control for all ablation experiments.
(§1) Mice were deeply anaesthetized with isoflurane (5% in O2) and perfused transcardially with 20 mL PBS followed by 20 mL of cold 4% paraformaldehyde (PFA) in PBS. The spinal cord was removed and post-fixed with 4% PFA for 6 hours at 4° C. Samples were then transferred to 30% sucrose in PBS overnight. […] Cell counting and fluorescent signal intensity was quantified using ImageJ software (National Institutes of Health, Bethesda, MD).
Quantification of Iba1 cells was done with ImageJ software (NIH Image). […]

[3] = tested on: microglia-astrocyte interaction; experiment: Microglia-astrocyte interaction (Iba1/GFAP or CX3CR1-GFP/GFAP overlap) in L4 spinal cord; assay type: in vivo, mice; conditions: intrathecal, 150 µg/day, with NMO-IgG infusion
From the text: However, the question remains as to what cellular and molecular mechanisms underlie microglial function in NMO. […] Under control conditions, GFAP^+ astrocytes rarely overlap with Iba1^+ microglia. However, spatial overlapping was abundant after NMO-IgG exposure. […] Specifically, on average only 17% of microglia interact with astrocytes under control conditions while 65% of microglia overlap with astrocytes after NMO-IgG infusion.
as §1, with “overnight. Sample sections ([…] in thickness) were prepared on gelatin-coated glass slide with a cryostat (Leica).” for “overnight.”

astrocyte complement C3 = experiment: Complement C3 and GFAP double staining of astrocytes in L4 spinal cord; assay type: in vivo, mice; conditions: minocycline co-infusion with NMO-IgG
From the text: Astrocytes exposed in culture to NMO-IgG increase their production and secretion of all complement components, except C1q, which is made by activated microglia (see, Howe et al., Glia 62:692-708 (2014)). […] In contrast, C3 expression was principally restricted to the lumen of blood vessels following control-IgG exposure. The percentage of C3^+ astrocytes in spinal cord of mice receiving NMO-IgG was ~5-fold higher than that of control-IgG recipients (FIG. 10A). C3 upregulation in astrocytes is independent of microglia, as a similar C3 increase was found after microglia ablation (FIG. 11).
as §1, with “overnight. Sample sections ([…] in thickness) were prepared on gelatin-coated glass slide with a cryostat (Leica).” for “overnight.”

## C3a: signaling molecule produced by cleavage of complement component C3
Microglia [1]
  time to induce microglial process chemotaxis: ≤ 30 min

## FC(F)(F)c1ccc(CNc2ccc(Cc3c[nH]c4ncc(Cl)cc34)cn2)cn1 [PLX3397, Pexidartinib]
Murine model of NMO; PLX3397 chow started 7 days before NMO-IgG infusion
  motor function after NMO-IgG infusion (rotarod) versus control chow-treated group: significantly better
Microglia [2]; PLX3397 chow, day 5 after NMO-IgG infusion, versus control chow
  depletion of microglia in the L4 spinal cord (Iba1+ cell density): eliminated most of the microglia

## diphtheria toxin
Microglia [2]; CX3CR1CreER/+:R26iDTR/+ mice after tamoxifen, 1 to 3 days after DT 50 µg/Kg i.p.
  depletion of spinal microglia: mostly depleted

## CN(C)c1ccc(O)c2c1C[C@H]1C[C@H]3[C@H](N(C)C)C(O)=C(C(N)=O)C(=O)[C@@]3(O)C(O)=C1C2=O [minocycline]
Murine model of NMO; intrathecal, 150 µg/day, co-infused with NMO-IgG
  effect on NMO-IgG induced motor dysfunction in rotarod test: prevented the NMO-IgG induced motor dysfunction
Murine model of NMO; systemic injection after 2 days of NMO-IgG infusion
  effect on motor impairment when given after onset: reversed the motor impairment
[3]
  effect on microglia-astrocyte interaction: reduced microglia-astrocyte interaction
Astrocyte complement C3
  effect on NMO-IgG upregulation of astrocyte complement C3: not altered
